Experiments:
IL-1β = test: Inhibition of IL-1β secretion in LPS-stimulated PBMCs; assay type: cell-based; conditions: Homo sapiens, PBMC; PBMCs stimulated with LPS (50 pg/mL); read-out: EC50 for inhibiting IL-1β
Description: (§1) Objective: Test 3-(methylsulfonyl)acrylonitrile for inhibition of cytokine secretion in peripheral blood mononuclear cells (PBMCs) stimulated with lipopolysaccharide (LPS).
(§2) Cytokines: IL-1β, IL-6, TNFα
(§3) Test Compound Dose Concentrations: 50, 10, 5, 1, 0.5, 0.1 μM
(§4) Cells negative control: Vehicle only/No LPS
(§5) Positive control: Dexamethasone (100 nM, n=2)
(§6) 1. Microtiter plates were seeded with 1×10^4 PBMCs/well in […], culture medium (RPMI 1640, 10% FBS, 1% Pen/Strep, 2 mM L-Alanyl-L-glutamine)
(§7) 2. The plates were incubated at 37° C. in 5% CO2 for 1 hour.
(§8) 3. 10 μL of test compound (at different concentrations), dexamethasone, and vehicle controls were added to appropriate wells, and the plates were incubated at 37° C. in 5% CO2 for 1 hour.
(§9) 4. 40 μL of LPS (50 pg/mL final) were added and the plates were incubated at 37° C. in 5% CO2 for 1 hour.
(§10) 5. The plates were centrifuged at 1000 rpm for 10 minutes and supernatants were collected.
(§11) 6. The supernatants were assayed for IL-1β, IL-6, TNFα levels using the Luminex Bead kit.
(§12) 7. EC50 values were determined.

IL-6 = test: Inhibition of IL-6 secretion in LPS-stimulated PBMCs; assay type: cell-based; conditions: Homo sapiens, PBMC; PBMCs stimulated with LPS (50 pg/mL); read-out: EC50 for inhibiting IL-6
Description: as §1, §2, §3, §4, §5, §6, §7, §8, §9, §10, §11, §12

TNFα = test: Inhibition of TNFα secretion in LPS-stimulated PBMCs; assay type: cell-based; conditions: Homo sapiens, PBMC; PBMCs stimulated with LPS (50 pg/mL); read-out: EC50 for inhibiting TNFα
Description: as §1, §2, §3, §4, §5, §6, §7, §8, §9, §10, §11, §12

[1] = test system: arachidonic acid induced ear swelling; test: Topical arachidonic acid induced ear swelling model, oral administration; assay type: in vivo, mice; conditions: for % Inhibition: ear swelling at 60 minutes
Description: The test compound, dexamethasone (positive control), and vehicle were orally administered to mice and evaluated for anti-inflammatory activity in the topical arachidonic acid induced ear swelling model in mice. […] All animals were maintained in a controlled temperature (22-24° C.) and humidity (60%-70%) environment with 12-hour light/dark cycles for at least one week prior to use. Arachidonic acid (0.5 mg in 20 μL acetone) was applied topically onto the anterior and posterior surfaces of the right ear of test animals to induce inflammation. […] At 60 minutes after arachidonic acid induction of ear edema, the thickness of the right ear and the left ear was measured and the difference calculated as an indication of the inflammation in the right ear.

tail-flick latency = test: Tail-flick latency (52° C. water bath), potentiation of morphine analgesia; assay type: in vivo, mice
Description: The response of the mice to nociceptive stimuli was evaluated using the time of tail-flick or tail-flick latency from 52° C. water bath. Briefly, the animal was placed in a restrainer with its tail outside. The tail (distal ⅓rd) was immersed into 52° C. water and the time for the mouse to flick its tail out of the water was recorded. The maximum exposure permitted was 10 seconds. If there was no response within 10 seconds, the animal tail was removed from the water to prevent damage to the tail. Baseline data were collected using the tail flick procedure 2 times over 1 hour, prior to any drug administration. The last baseline response data point was used as basal tail flick latency.
3-(methylsulfonyl)acrylonitrile was dissolved in 0.5% methyl cellulose (MC) to 2 mg/mL, and orally administered to mice (n=5) in a volume of 10 ml/kg (20 mg/kg), 1 hour prior to morphine dosing. One mL plastic disposal tuberculin syringes (Becton Dickinson & Co. Franklin Lakes, N.J.) and 20 gauge×38 mm flexible plastic feeding tubes (Instech Laboratories, Plymouth Meeting, Pa.) were used for oral drug administration. Morphine at 5 mg/kg in saline was subcutaneously administered to mice at time zero.
Tail flick measurements were made at 5, 15, 30, 45, 60, and 75 minutes post-morphine administration.
Statistical evaluation was done using an appropriate analysis of variance (ANOVA) using tail flick latencies. […] Analysis with p-values <0.05 is considered significant.

Work on `CS(=O)(=O)C=CC#N` [3-(methylsulfonyl)acrylonitrile] yielded an EC50 (IL-1β) of 160 nM, an EC50 (IL-6) of 190 nM and an EC50 (TNFα) of 300 nM. The “% Inhibition” value ([1]; 0.1 mg/kg oral gavage 1 hour before arachidonic acid) was 11%, the “% Inhibition” value ([1]; 0.3 mg/kg oral gavage 1 hour before arachidonic acid) was 11% and the “% Inhibition” value ([1]; 1 mg/kg oral gavage 1 hour before arachidonic acid) was 9%. The “% Inhibition” value ([1]; 3 mg/kg oral gavage 1 hour before arachidonic acid) was 13%, the “% Inhibition” value ([1]; 10 mg/kg oral gavage 1 hour before arachidonic acid) was 26% and the “inhibition in arachidonic acid induced ear swelling (in words)” value ([1]; 10 mg/kg oral, at 60 minutes, vs vehicle, t-test p<0.05) was “significant inhibition”. For the same molecule, the “analgesic effect (tail flick), morphine plus compound” value (tail-flick latency; 20 mg/kg oral 1 hour before morphine 5 mg/kg s.c., 75 minutes post dosing) was “strong analgesic effects” and the “latency of tail flick, morphine plus compound vs morphine alone” value (tail-flick latency; 20 mg/kg oral 1 hour before morphine 5 mg/kg s.c., measured at 30, 60, and 75 minutes post morphine dosing) was “increases the latency of tail flick significantly”.

`CN1CC[C@]23c4c5ccc(O)c4O[C@H]2[C@@H](O)C=C[C@H]3[C@H]1C5` [morphine, reference compound] was tested, and the “analgesic effect (tail flick), morphine alone” value (tail-flick latency; morphine 5 mg/kg s.c., 75 minutes post dosing) was “no effect”.

For `C[C@@H]1C[C@H]2[C@@H]3CCC4=CC(=O)C=C[C@]4(C)[C@@]3(F)[C@@H](O)C[C@]2(C)[C@@]1(O)C(=O)CO` [Dexamethasone, reference compound], the “% Inhibition” value ([1]; 0.3 mg/kg oral gavage 3 hour before arachidonic acid) was 39%.

From patent US9763909B2, “Methods for treating inflammation and pain” (Olatec Therapeutics LLC, priority 2012, dated 2017)
